Earlier results as cited in patent US20150150789A1, “ANTIMICROBIAL COMPOSITIONS AND METHODS FOR PREVENTING INFECTION IN SURGICAL INCISION SITES” (TYRX, Inc., priority 2013, published 2015).

Settings: for solubility in organic solvents: alcohols, ketones, ethers, aldehydes, acetonitrile, acetic acid, methylene chloride, chloroform (novobiocin sodium: alcohol)

Row | SMILES | solubility in organic solvents | solubility in water | solubility in acidic aqueous solutions (acidic aqueous solutions)
1 | CC[C@H]1OC(=O)[C@H](C)[C@@H](O[C@H]2C[C@@](C)(OC)[C@@H](O)[C@H](C)O2)[C@H](C)[C@@H](O[C@@H]2O[C@H](C)C[C@H](N(C)C)[C@H]2O)[C@](C)(O)C[C@@H](C)C(=O)[C@H](C)[C@@H](O)[C@]1(C)O [Erythromycin] | soluble | slightly soluble | 
2 | Oc1c(Cl)cc(Cl)c(Cl)c1Cc1c(O)c(Cl)cc(Cl)c1Cl [Hexachlorophene] | soluble | soluble | 
3 | CCOc1ccc2ccccc2c1C(=O)N[C@@H]1C(=O)N2[C@@H]1SC(C)(C)[C@@H]2C(=O)O [Nafcillin] | readily soluble | readily soluble | 
4 | CO[C@@H]1[C@@H](OC(N)=O)[C@@H](O)[C@H](Oc2ccc3c(O)c(NC(=O)c4ccc(O)c(CC=C(C)C)c4)c(=O)oc3c2C)OC1(C)C [Novobiocin sodium] | freely soluble | freely soluble | 
5 | CO[C@H]1/C=C/O[C@@]2(C)Oc3c(C)c(O)c4c(O)c(c(/C=N/N5CCN(C)CC5)c(O)c4c3C2=O)NC(=O)/C(C)=C\C=C\[C@H](C)[C@H](O)[C@@H](C)[C@@H](O)[C@@H](C)[C@H](OC(C)=O)[C@@H]1C [Rifampin, rifampin] | freely soluble | very slightly soluble | freely soluble
